ChEMBL document CHEMBL1201862, “PubChem BioAssay data set” (2004)
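Five compound concentrations were applied to cells in 96-well plates for 48 hours; endpoints were derived by simple linear interpolation of the resulting dose-response curve. GI50 = concentration required for 50% inhibition of growth.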 Activity calls are given as the source filed them. No stated cut-off is given here; in the data, active = GI50 up to about 1.1 µM and inactive = higher.

Assays:
Experiment in all cases: growth of human tumour cells (NCI), 48 h
A498 = system: A498
A549 = system: A549
ACHN = system: ACHN
CAKI-1 = system: CAKI-1
DU-145 = system: DU-145
EKVX = system: EKVX
HOP-62 = system: HOP-62
LOX IMVI = system: LOX IMVI
OVCAR-3 = system: OVCAR-3
PC-3 = system: PC-3
SNB-19 = system: SNB-19
SW-620 = system: SW-620
UACC-257 = system: UACC-257
UACC-62 = system: UACC-62
OVCAR-8 = system: OVCAR-8
RPMI-8226 = system: RPMI-8226
SR = system: SR
TK-10 = system: TK-10
SK-MEL-2 = system: SK-MEL-2
T47D = system: T47D

Measured: GI50

CN(CCCNC(=O)c1cn(C)c2c1ccc1ccccc12)CCCNC(=O)c1cn(C)c2c1ccc1ccccc12
inactive: A498 14.7 µM | A549 1.35 µM | ACHN 1.71 µM | CAKI-1 1.53 µM | DU-145 1.55 µM | EKVX 1.7 µM | HOP-62 1.61 µM | LOX IMVI 1.82 µM | OVCAR-3 1.51 µM | PC-3 1.51 µM | SNB-19 2.33 µM | SW-620 2.59 µM | UACC-257 1.58 µM | UACC-62 2.06 µM

CC(C)C(=O)[C@@]1(C)SC[C@H]2CCN=C21
inactive: A498 34.4 µM | A549 > 100 µM | ACHN > 100 µM | CAKI-1 17 µM | DU-145 > 100 µM | EKVX > 100 µM | LOX IMVI > 100 µM | OVCAR-3 > 100 µM | OVCAR-8 > 100 µM | RPMI-8226 > 100 µM | SNB-19 > 100 µM | SR 56.8 µM | SW-620 > 100 µM | TK-10 > 100 µM | UACC-257 > 100 µM | UACC-62 41.4 µM

CC1(Br)CC2OC3(Br)C=CC(C)(O)C2(CC1=O)C3(C)C (configuration not stated)
inactive: A498 > 100 µM | A549 > 100 µM | ACHN > 100 µM | CAKI-1 > 100 µM | EKVX > 100 µM | HOP-62 > 100 µM | LOX IMVI > 100 µM | OVCAR-3 > 100 µM | OVCAR-8 > 100 µM | RPMI-8226 36.8 µM | SK-MEL-2 > 100 µM | SNB-19 > 100 µM | SR 82.4 µM | SW-620 > 100 µM | TK-10 > 100 µM | UACC-257 > 100 µM | UACC-62 99.1 µM

Nc1nc2ncc(SCc3ccc(C(=O)NC(CCC(=O)O)C(=O)O)cc3)cc2c(=O)[nH]1 (configuration not stated)
inactive: A498 > 100 µM | A549 > 100 µM | ACHN > 100 µM | CAKI-1 > 100 µM | DU-145 > 100 µM | EKVX > 100 µM | HOP-62 > 100 µM | LOX IMVI > 100 µM | OVCAR-3 > 100 µM | OVCAR-8 > 100 µM | PC-3 > 100 µM | RPMI-8226 19.4 µM | SK-MEL-2 > 100 µM | SNB-19 > 100 µM | SR > 100 µM | SW-620 > 100 µM | TK-10 > 100 µM | UACC-257 > 100 µM | UACC-62 > 100 µM

CC(C)=CCC\C(C)=C/C=C/C(C)=C\C=C\C(C)=C/C=C/C=C(C)\C=C\C=C(C)/C=C/C=C(/C)CCC=C(C)C
inactive: A498 > 100 µM | A549 > 100 µM | ACHN > 100 µM | CAKI-1 > 100 µM | DU-145 > 100 µM | EKVX > 100 µM | HOP-62 > 100 µM | LOX IMVI > 100 µM | OVCAR-3 > 100 µM | OVCAR-8 > 100 µM | PC-3 > 100 µM | SK-MEL-2 > 100 µM | SNB-19 > 100 µM | SR > 100 µM | SW-620 > 100 µM | TK-10 > 100 µM | UACC-257 > 100 µM | UACC-62 > 100 µM

O=C1CN(c2cccc(C(F)(F)F)c2)C(=O)CN1CCN1CC(=O)N(c2cccc(C(F)(F)F)c2)CC1=O
inactive: A549 > 100 µM | ACHN > 100 µM | EKVX > 100 µM | HOP-62 > 100 µM | OVCAR-8 > 100 µM | PC-3 > 100 µM | RPMI-8226 > 100 µM | SNB-19 > 100 µM | SR > 100 µM | SW-620 > 100 µM | T47D > 100 µM | TK-10 > 100 µM | UACC-257 > 100 µM

NC(=O)N1N=C2c3ccccc3OC[C@H]2[C@@H]1c1ccccc1
inactive: A498 16.4 µM | A549 5.4 µM | ACHN 5.68 µM | CAKI-1 35.6 µM | EKVX 35.2 µM | HOP-62 23.8 µM | LOX IMVI 26.1 µM | OVCAR-3 20.9 µM | OVCAR-8 5.07 µM | RPMI-8226 8.89 µM | SK-MEL-2 27.6 µM | SNB-19 31.6 µM | SR 6.31 µM | SW-620 4.99 µM | TK-10 52.4 µM | UACC-257 10.9 µM | UACC-62 3.78 µM

O=[N+]([O-])c1ccc(-n2nnc(C3=NCCCN3)c2-c2ccc(Cl)cc2)cc1
inactive: A498 > 100 µM | A549 > 100 µM | ACHN > 100 µM | CAKI-1 > 100 µM | EKVX > 100 µM | HOP-62 > 100 µM | LOX IMVI > 100 µM | OVCAR-3 > 100 µM | OVCAR-8 > 100 µM | RPMI-8226 > 100 µM | SK-MEL-2 33.5 µM | SNB-19 > 100 µM | SR 29 µM | SW-620 > 100 µM | TK-10 > 100 µM | UACC-257 67.1 µM | UACC-62 > 100 µM

Cc1ccc(S(=O)(=O)NC(=O)NCC(N)=O)cc1
inactive: A549 > 100 µM | ACHN > 100 µM | DU-145 > 100 µM | HOP-62 > 100 µM | LOX IMVI > 100 µM | OVCAR-8 > 100 µM | PC-3 > 100 µM | RPMI-8226 > 100 µM | SK-MEL-2 > 100 µM | SNB-19 > 100 µM | SW-620 > 100 µM | T47D > 100 µM | TK-10 > 100 µM | UACC-257 > 100 µM | UACC-62 > 100 µM

CN(C)c1ccc2nc3c(ccc4ccccc43)[o+]c2c1
inactive: A498 17.8 µM | A549 18.7 µM | ACHN 13.8 µM | CAKI-1 15.5 µM | EKVX 20.9 µM | HOP-62 19 µM | LOX IMVI 6 µM | OVCAR-3 3.89 µM | OVCAR-8 12.4 µM | RPMI-8226 3.48 µM | SK-MEL-2 19.6 µM | SNB-19 17.7 µM | SR 3.42 µM | SW-620 3.2 µM | TK-10 17.3 µM | UACC-257 4.67 µM | UACC-62 11.5 µM

C#CCC(N)(CO)C(=O)O (configuration not stated)
inactive: A498 > 100 µM | A549 > 100 µM | ACHN > 100 µM | CAKI-1 > 100 µM | EKVX > 100 µM | HOP-62 > 100 µM | LOX IMVI > 100 µM | OVCAR-3 > 100 µM | OVCAR-8 > 100 µM | RPMI-8226 > 100 µM | SK-MEL-2 > 100 µM | SNB-19 > 100 µM | SR > 100 µM | SW-620 > 100 µM | TK-10 > 100 µM | UACC-257 > 100 µM | UACC-62 > 100 µM

COCC(OC)C(CC=C(C#N)C#N)OC (configuration not stated)
inactive: A498 > 100 µM | A549 > 100 µM | ACHN > 100 µM | CAKI-1 > 100 µM | EKVX > 100 µM | HOP-62 > 100 µM | LOX IMVI > 100 µM | OVCAR-3 > 100 µM | OVCAR-8 > 100 µM | RPMI-8226 > 100 µM | SK-MEL-2 > 100 µM | SNB-19 > 100 µM | SR > 100 µM | SW-620 > 100 µM | TK-10 > 100 µM | UACC-257 > 100 µM | UACC-62 > 100 µM
